In the assay the test system is MX-1 breast xenograft, intrarenal, nude mice, tumor weight. The experiment in a line: NCI In Vivo Anticancer Drug Screen. Data for tumor model Human Mammary Carcinoma MX-1 Xenograft (intrarenal inoculation) in NU/NU BALB/C (nude) mice. The conditions noted are these: endpoint: mean tumor weight change, higher = larger tumour. The procedure: The antitumor activity of compounds was measured in mice bearing transplantable tumors. Survival or tumor size were measured and the results are expressed as the measurement made in the treated group (T) divided by the measurement made in the vehicle treated control group (C). The tumor model used in this assay is Human Mammary Carcinoma MX-1 Xenograft (intrarenal inoculation) in NU/NU BALB/C (nude) mice
(In xenograft studies the graft and the host belong to different species.)

[1] abbreviates: dose: 300.0 mg/kg/injection, schedule: Q04DX003 (sc), vehicle: saline with Tween-80.
[2] abbreviates: dose: 12.5 mg/kg/injection, schedule: Q01DX010 (sc), vehicle: saline with Tween-80.

The text below walks through data of PubChem BioAssay AID298 (DTP/NCI, 2004).

Several values for one entry are separate records, joined by “and”; a condition that tells them apart may be missing. Equal entries are not always repeated. Results filed as inconclusive are left out.

As for `C/C(=N\NC(=O)c1ccccc1O)c1cccc(/C(C)=N/NC(=O)c2ccccc2O)n1`, the T/C by setting is: (dose: 25.0 mg/kg/injection, schedule: Q04DX003 (ip), vehicle: saline) 109 % of control; (dose: 50.0 mg/kg/injection, schedule: Q04DX003 (ip), vehicle: saline) 77 % of control; (dose: 100.0 mg/kg/injection, schedule: Q04DX003 (ip), vehicle: saline) 100 % of control.

For `O=C(CCCCCCC(=O)ON1C(=O)CCC1=O)ON1C(=O)CCC1=O`, the T/C runs as follows: under setting [1], 110 % of control; (dose: 600.0 mg/kg/injection, schedule: Q04DX003 (sc), vehicle: saline with Tween-80) 96 % of control; (dose: 1200.0 mg/kg/injection, schedule: Q04DX003 (sc), vehicle: saline with Tween-80) 81 % of control; (dose: 2400.0 mg/kg/injection, schedule: Q04DX003 (sc), vehicle: saline with Tween-80) 85 % of control.

Turning to `CN(C)c1nc(N(C)C)nc(N(C)C)n1`, the T/C by setting is: under setting [2], 102 % of control; (dose: 15.0 mg/kg/injection, schedule: Q01DX010 (sc), vehicle: saline with Tween-80) 84 % of control; (dose: 25.0 mg/kg/injection, schedule: Q01DX010 (ip), vehicle: Klucel (hydroxypropylcellulose) (HPC)) 36 % of control; (dose: 25.0 mg/kg/injection, schedule: Q01DX010 (sc), vehicle: saline with Tween-80) 56 % of control; (dose: 30.0 mg/kg/injection, schedule: Q01DX010 (sc), vehicle: saline with Tween-80) 3 % of control; (dose: 50.0 mg/kg/injection, schedule: Q01DX010 (sc), vehicle: saline with Tween-80) 7 % of control. Also, the T/C runs as follows: (dose: 60.0 mg/kg/injection, schedule: Q01DX010 (sc), vehicle: saline with Tween-80) -30 % of control; (dose: 75.0 mg/kg/injection, schedule: Q04DX003 (sc), vehicle: saline with Tween-80) 37 % of control; (dose: 100.0 mg/kg/injection, schedule: Q01DX010 (ip), vehicle: Klucel (hydroxypropylcellulose) (HPC)) -100 % of control; (dose: 100.0 mg/kg/injection, schedule: Q01DX010 (sc), vehicle: saline with Tween-80) 9 % of control; (dose: 120.0 mg/kg/injection, schedule: Q01DX010 (sc), vehicle: saline with Tween-80) -90 % of control; (dose: 150.0 mg/kg/injection, schedule: Q04DX003 (sc), vehicle: saline with Tween-80) 16 % of control. Further, the T/C is, setting by setting: (dose: 200.0 mg/kg/injection, schedule: Q01DX010 (ip), vehicle: Klucel (hydroxypropylcellulose) (HPC)) -100 % of control; (dose: 200.0 mg/kg/injection, schedule: Q01DX010 (sc), vehicle: saline with Tween-80) -5 % of control; under setting [1], -60 % of control.

As for `Cn1cc(NC(=O)c2cc(NC(=O)c3cc(NC=O)cn3C)cn2C)cc1C(=O)NCCC(=N)N`, the T/C is 82 % of control (dose: 50.0 mg/kg/injection, schedule: Q04DX003 (ip), vehicle: water); 83 % of control (dose: 100.0 mg/kg/injection, schedule: Q04DX003 (ip), vehicle: water); 51 % of control (dose: 200.0 mg/kg/injection, schedule: Q04DX003 (ip), vehicle: water).

As for `N/C(=N/N=C/c1cc(Br)cc(Br)c1O)NO`, the T/C is 107 % of control (dose: 50.0 mg/kg/injection, schedule: Q04DX003 (ip), vehicle: suspension in saline) and 27 % of control (dose: 200.0 mg/kg/injection, schedule: Q04DX003 (ip), vehicle: suspension in saline).

Consider `Cc1ccoc1`, for which the T/C was 102 % of control (dose: 50.0 mg/kg/injection, schedule: Q01DX010 (ip), vehicle: saline with Tween-80); 97 % of control (dose: 100.0 mg/kg/injection, schedule: Q01DX010 (ip), vehicle: saline with Tween-80); 104 % of control (dose: 200.0 mg/kg/injection, schedule: Q01DX010 (ip), vehicle: saline with Tween-80).

On to `C[C@@]1(CO)[C@H](O)CC[C@@]2(C)[C@H]1CC[C@H]1C[C@@H]3C[C@@]12CC[C@@]3(O)COC(=O)CN`, for which the T/C by setting is: (dose: 50.0 mg/kg/injection, schedule: Q04DX003 (ip), vehicle: saline + alcohol) 107 % of control; (dose: 100.0 mg/kg/injection, schedule: Q04DX003 (ip), vehicle: saline + alcohol) 95 % of control.

For the compound `NC(CSSCC(N)C(=O)O)C(=O)O` (stereo not given), the T/C runs as follows: (dose: 300.0 mg/kg/injection, schedule: Q04DX003 (ip), vehicle: saline) 88 % of control; (dose: 600.0 mg/kg/injection, schedule: Q04DX003 (ip), vehicle: saline) 92 % of control; (dose: 1200.0 mg/kg/injection, schedule: Q04DX003 (ip), vehicle: saline) 104 % of control; (dose: 2400.0 mg/kg/injection, schedule: Q04DX003 (ip), vehicle: saline) 80 % of control.

Regarding `CN=C(NC#N)NCCSCc1nc[nH]c1C`, the T/C (dose: 600.0 mg/kg/injection, schedule: Q04DX003 (sc), vehicle: Klucel (hydroxypropylcellulose) (HPC)) is 108 % of control.

In the case of `O=C(Nc1cccc(O)c1)C(Cl)=C(Cl)Cl`, the T/C by setting is: (dose: 6.25 mg/kg/injection, schedule: Q04DX003 (ip), vehicle: other) 66 % of control; (dose: 12.5 mg/kg/injection, schedule: Q04DX003 (ip), vehicle: DMSO) 112 % of control; (dose: 12.5 mg/kg/injection, schedule: Q04DX003 (ip), vehicle: other) 68 % of control; (dose: 25.0 mg/kg/injection, schedule: Q04DX003 (ip), vehicle: DMSO) 116 % of control; (dose: 25.0 mg/kg/injection, schedule: Q04DX003 (ip), vehicle: other) 45 % of control; (dose: 50.0 mg/kg/injection, schedule: Q04DX003 (ip), vehicle: DMSO) 47 % of control.

With `C=CC(=O)N1CN(C(=O)C=C)CN(C(=O)C=C)C1`, the T/C (dose: 6.25 mg/kg/injection, schedule: Q01DX010 (sc), vehicle: saline with Tween-80) is 116 % of control and the T/C under setting [2] is 179 % of control.

Consider `C#CCN(Cc1ccc2nc(N)[nH]c(=O)c2c1)c1ccc(C(=O)NC(CCC(=O)O)C(=O)O)cc1` (stereo not given), for which the T/C was 111 % of control (dose: 75.0 mg/kg/injection, schedule: Q04DX003 (ip), vehicle: water); 74 % of control (dose: 150.0 mg/kg/injection, schedule: Q04DX003 (ip), vehicle: water); 72 % of control (dose: 300.0 mg/kg/injection, schedule: Q04DX003 (ip), vehicle: water).

For the compound `Cc1cccc(OCC(O)CN2CC2)c1` (stereo not given), the T/C (dose: 50.0 mg/kg/injection, schedule: Q04DX003 (ip), vehicle: saline with Tween-80) was 63 % of control and the T/C (dose: 100.0 mg/kg/injection, schedule: Q04DX003 (ip), vehicle: saline with Tween-80) was 62 % of control.

For the compound `COC(COC(=O)N1CCN(C=O)CC1)C1=C(N2CC2)C(=O)C(C)=C(N2CC2)C1=O` (stereo not given), the T/C (dose: 3.0 mg/kg/injection, schedule: Q04DX003 (ip), vehicle: saline) is 5 % of control and -16 % of control.

Take `COc1cc2c(c(OC)c1O)-c1ccc(OC)c(=O)cc1[C@@H](NC(=O)C(F)(F)F)CC2`: the T/C runs as follows: (dose: 2.5 mg/kg/injection, schedule: Q04DX003 (ip), vehicle: Klucel (hydroxypropylcellulose) (HPC)) 62 % of control; (dose: 5.0 mg/kg/injection, schedule: Q04DX003 (ip), vehicle: Klucel (hydroxypropylcellulose) (HPC)) 60 % of control; (dose: 10.0 mg/kg/injection, schedule: Q04DX003 (ip), vehicle: Klucel (hydroxypropylcellulose) (HPC)) 35 % of control; (dose: 20.0 mg/kg/injection, schedule: Q04DX003 (ip), vehicle: Klucel (hydroxypropylcellulose) (HPC)) 34 % of control.
